Reference: patent US9108903B2, “Amides as modulators of sodium channels” (VERTEX PHARMACEUTICALS INCORPORATED, priority 2013, dated 2015)

These compounds were tested against human Nav1.8 (Homo sapiens (Human), UniProt Q9Y5Y9) (assay: E-VIPR optical membrane potential assay with electrical stimulation). Settings: HEK cells expressing human Nav1.8.
Assay type: cell-based
From the text: Assays for Detecting and Measuring NaV Inhibition Properties of Compounds E-VIPR Optical Membrane Potential Assay Method with Electrical Stimulation
Sodium channels are voltage-dependent proteins that can be activated by inducing membrane voltage changes by applying electric fields. The electrical stimulation instrument and methods of use are described in Ion Channel Assay Methods PCT/US01/21652, herein incorporated by reference and are referred to as E-VIPR. The instrument comprises a microtiter plate handler, an optical system for exciting the coumarin dye while simultaneously recording the coumarin and oxonol emissions, a waveform generator, a current- or voltage-controlled amplifier, and a device for inserting electrodes in well. Under integrated computer control, this instrument passes user-programmed electrical stimulus protocols to cells within the wells of the microtiter plate.
24 hours before the assay on E-VIPR, HEK cells expressing human Nav1.8 were seeded in 384-well poly-lysine coated plates at 15,000-20,000 cells per well. HEK cells were grown in media (exact composition is specific to each cell type and NaV subtype) supplemented with 10% FBS (Fetal Bovine Serum, qualified; GibcoBRL #16140-071) and 1% Pen-Strep (Penicillin-Streptomycin; GibcoBRL #15140-122). Cells were grown in vented cap flasks, in 90% humidity and 5% CO2.
100 mg/mL Pluronic F-127 (Sigma #P2443), in dry DMSO
Compound Plates: 384-well round bottom plate, e.g. Corning 384-well Polypropylene Round Bottom #3656
Cell Plates: 384-well tissue culture treated plate, e.g. Greiner #781091-1B
Bath1 buffer: Glucose 10 mM (1.8 g/L), Magnesium Chloride (Anhydrous), 1 mM (0.095 g/L), Calcium Chloride, 2 mM (0.222 g/L), HEPES 10 mM (2.38 g/L), Potassium Chloride, 4.5 mM (0.335 g/L), Sodium Chloride 160 mM (9.35 g/L).
Hexyl Dye Solution: Bath1 Buffer+0.5% β-cyclodextrin (make this prior to use, Sigma #C4767), 8 μM CC2-DMPE+2.5 μM DiSBAC6(3). To make the solution added volume of 10% Pluronic F127 stock equal to volumes of CC2-DMPE+DiSBAC6(3). The order of preparation was first mix Pluronic and CC2-DMPE, then added DiSBAC6(3) while vortexing, then added Bath1+β-Cyclodextrin.
1) Pre-spotted compounds (in neat DMSO) into compound plates. Vehicle control (neat DMSO), the positive control (20 mM DMSO stock tetracaine, 125 μM final in assay) and test compounds were added to each well at 160× desired final concentration in neat DMSO. Final compound plate volume was 80 μL (80-fold intermediate dilution from 1 μL DMSO spot; 160-fold final dilution after transfer to cell plate). Final DMSO concentration for all wells in assay was 0.625%.
2) Prepared Hexyl Dye Solution.
3) Prepared cell plates. On the day of the assay, medium was aspirated and cells were washed three times with 100 μL of Bath1 Solution, maintaining 25 μL residual volume in each well.
4) Dispensed 25 μL per well of Hexyl Dye Solution into cell plates. Incubated for 20-35 minutes at room temp or ambient conditions.
5) Dispensed 80 μL per well of Bath1 into compound plates. Acid Yellow-17 (1 mM) was added and Potassium Chloride was altered from 4.5 to 20 mM depending on the NaV subtype and assay sensitivity.
6) Washed cell plates three times with 100 μL per well of Bath1, leaving 25 μL of residual volume. Then transfered 25 uL per well from Compound Plates to Cell Plates. Incubated for 20-35 minutes at room temp/ambient condition.
7) Read Plate on E-VIPR. Used the current-controlled amplifier to deliver stimulation wave pulses for 10 seconds and a scan rate of 200 Hz. A pre-stimulus recording was performed for 0.5 seconds to obtain the un-stimulated intensities baseline. The stimulatory waveform was followed by 0.5 seconds of post-stimulation recording to examine the relaxation to the resting state.
Data was analyzed and reported as normalized ratios of emission intensities measured in the 460 nm and 580 nm channels. The response as a function of time was reported as the ratios obtained using the following formula: […]

human Nav1.8, sequence (Q9Y5Y9 whole entry): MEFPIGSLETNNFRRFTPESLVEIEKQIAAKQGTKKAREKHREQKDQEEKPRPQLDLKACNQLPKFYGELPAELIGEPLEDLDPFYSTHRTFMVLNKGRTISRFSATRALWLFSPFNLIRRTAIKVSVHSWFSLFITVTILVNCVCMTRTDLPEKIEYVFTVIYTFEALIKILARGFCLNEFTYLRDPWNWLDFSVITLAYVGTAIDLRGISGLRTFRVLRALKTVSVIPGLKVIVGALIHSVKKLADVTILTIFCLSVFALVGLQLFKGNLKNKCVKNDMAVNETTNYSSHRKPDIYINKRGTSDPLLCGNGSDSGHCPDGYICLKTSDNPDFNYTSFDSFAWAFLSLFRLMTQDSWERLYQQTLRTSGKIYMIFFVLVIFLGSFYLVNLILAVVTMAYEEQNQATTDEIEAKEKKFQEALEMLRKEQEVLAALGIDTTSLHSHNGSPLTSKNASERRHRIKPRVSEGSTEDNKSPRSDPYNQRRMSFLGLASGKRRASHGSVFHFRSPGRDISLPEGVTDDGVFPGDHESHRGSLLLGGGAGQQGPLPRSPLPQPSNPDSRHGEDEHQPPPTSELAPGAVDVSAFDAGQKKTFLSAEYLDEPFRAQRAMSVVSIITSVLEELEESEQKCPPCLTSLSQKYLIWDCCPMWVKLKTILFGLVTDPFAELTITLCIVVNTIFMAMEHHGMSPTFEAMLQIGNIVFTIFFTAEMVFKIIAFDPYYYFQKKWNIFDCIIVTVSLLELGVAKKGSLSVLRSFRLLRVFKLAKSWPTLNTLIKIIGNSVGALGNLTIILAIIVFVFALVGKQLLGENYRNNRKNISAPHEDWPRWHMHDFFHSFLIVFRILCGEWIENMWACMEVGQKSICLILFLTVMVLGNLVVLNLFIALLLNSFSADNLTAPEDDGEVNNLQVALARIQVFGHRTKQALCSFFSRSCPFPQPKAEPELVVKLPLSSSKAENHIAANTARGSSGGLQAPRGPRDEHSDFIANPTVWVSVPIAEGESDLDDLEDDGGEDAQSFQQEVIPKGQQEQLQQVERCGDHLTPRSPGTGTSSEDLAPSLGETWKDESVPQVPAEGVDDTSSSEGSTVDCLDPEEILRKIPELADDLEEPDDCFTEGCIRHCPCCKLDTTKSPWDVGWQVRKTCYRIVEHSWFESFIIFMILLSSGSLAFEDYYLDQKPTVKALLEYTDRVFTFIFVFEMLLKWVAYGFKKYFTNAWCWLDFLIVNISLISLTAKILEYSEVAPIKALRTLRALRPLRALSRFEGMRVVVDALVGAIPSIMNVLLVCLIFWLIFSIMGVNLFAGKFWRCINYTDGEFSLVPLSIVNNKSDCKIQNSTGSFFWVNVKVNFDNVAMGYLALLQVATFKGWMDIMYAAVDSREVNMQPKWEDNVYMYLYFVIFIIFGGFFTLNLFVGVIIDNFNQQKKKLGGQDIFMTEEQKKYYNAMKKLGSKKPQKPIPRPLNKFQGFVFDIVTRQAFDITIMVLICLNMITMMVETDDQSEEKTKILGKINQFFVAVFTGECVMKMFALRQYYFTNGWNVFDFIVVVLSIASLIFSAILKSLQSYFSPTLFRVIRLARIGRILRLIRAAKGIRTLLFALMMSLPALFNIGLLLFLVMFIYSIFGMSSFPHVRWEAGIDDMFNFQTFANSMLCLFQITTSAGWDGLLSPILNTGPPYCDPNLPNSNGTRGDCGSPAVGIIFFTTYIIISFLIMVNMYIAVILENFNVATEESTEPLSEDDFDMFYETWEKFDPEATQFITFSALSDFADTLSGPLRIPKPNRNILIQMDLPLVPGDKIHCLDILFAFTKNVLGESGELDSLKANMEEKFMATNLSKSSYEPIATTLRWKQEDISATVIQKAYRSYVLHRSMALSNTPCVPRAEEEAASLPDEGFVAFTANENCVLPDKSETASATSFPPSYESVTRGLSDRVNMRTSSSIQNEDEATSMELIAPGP

Point of comparison: `COc1cc(F)ccc1Oc1cc(C(F)(F)C(F)(F)F)ccc1C(=O)Nc1ccc(C(=O)O)nc1` [Compound 72, 5-(2-(4-fluoro-2-methoxyphenoxy)-4-(perfluoroethyl)benzamido)picolinic acid], IC50 35 nM. Against it:
- COc1ccc(Oc2ccc(C(F)(F)F)cc2C(=O)Nc2ccc(C(=O)O)nc2)c(OC)c1 [Compound 65, 5-(2-(2,4-dimethoxyphenoxy)-5-(trifluoromethyl)benzamido)picolinic acid] — within 1.5-fold, 39 nM
- COc1cc(Cl)ccc1Oc1ccc(C(F)(F)F)cc1C(=O)Nc1ccc(C(=O)O)nc1 [Compound 66, 5-(2-(4-chloro-2-methoxyphenoxy)-5-(trifluoromethyl)benzamido)picolinic acid] — 1.9-fold higher, 68 nM
- COc1ccc(Oc2ccc(C(F)(F)F)cc2C(=O)Nc2ccc(C(=O)O)nc2)c(C)c1 [Compound 67, 5-(2-(4-methoxy-2-methylphenoxy)-5-(trifluoromethyl)benzamido)picolinic acid] — 2.3-fold higher, 79 nM
- COc1ccc(Oc2ccc(C(F)(F)F)cc2C(=O)Nc2ccc(C(=O)O)nc2)c(Cl)c1 [Compound 68, 5-(2-(2-chloro-4-methoxyphenoxy)-5-(trifluoromethyl)benzamido)picolinic acid] — 3.9-fold higher, 135 nM
- COc1c(F)cccc1Oc1ccc(C(F)(F)F)cc1C(=O)Nc1ccc(C(=O)O)nc1 [Compound 69, 5-(2-(3-fluoro-2-methoxyphenoxy)-5-(trifluoromethyl)benzamido)picolinic acid] — 3.9-fold higher, 135 nM
- O=C(O)c1ccc(NC(=O)c2cc(C(F)(F)F)ccc2Oc2ccccc2)cn1 [Compound 70, 5-(2-phenoxy-5-(trifluoromethyl)benzamido)picolinic acid] — 28-fold higher, 985 nM
- O=C(O)c1ccc(NC(=O)c2cc(C(F)(F)F)ccc2Oc2ccc(F)cc2)cn1 [Compound 71, 5-(2-(4-fluorophenoxy)-5-(trifluoromethyl)benzamido)picolinic acid] — 8.1-fold higher, 285 nM
- O=C(O)c1ccc(NC(=O)c2ccc(C(F)(F)C(F)(F)F)cc2Oc2ccc(F)cc2)cn1 [Compound 73, 5-(2-(4-fluorophenoxy)-4-(perfluoroethyl)benzamido)picolinic acid] — 3.1-fold higher, 110 nM
- O=C(O)c1ccc(NC(=O)c2c(Oc3ccc(F)cc3Cl)cccc2C(F)(F)F)cn1 [Compound 74, 5-(2-(2-chloro-4-fluorophenoxy)-6-(trifluoromethyl)benzamido)picolinic acid] — 12-fold higher, 405 nM
- Cc1cc(F)ccc1Oc1ccc(C(F)(F)F)cc1C(=O)Nc1ccc(C(=O)O)nc1 [Compound 75, 5-(2-(4-fluoro-2-methylphenoxy)-5-(trifluoromethyl)benzamido)picolinic acid] — 3.1-fold higher, 108 nM
